# Reference: patent publication US9040527B2, “Pyrimidinediamine kinase inhibitors” (Rigel Pharmaceuticals, Inc., priority 2008, dated 2015)
# How the values were obtained:
# [1] = target: T1, PLK1 (Homo sapiens, UniProt P53350); test: In vitro PLK1 ELISA assay (biochemical); design: purchased Cell Signalling 7728
# Description: (§1) Inhibition of PLK1 was measured by quantifying phosphorylation of PLK1 substrates using chemiluminescent and fluorogenic probes. The protocols for these assays are provided below.
# In Vitro PLK1 ELISA Assay
# 1. Preparation of Assay Plates.
# Costar 96-well black or white solid flat high binding plates (Fisher Scientific, Catalog No. 07-200-591) were coated with Neutravidin (Pierce, Catalog No. 31000) using the following protocol. A 0.01 mg/mL solution of Neutravidin in 1× Phosphate Buffered Saline (“PBS”, Cellgro/Mediatech, Catalog No. 21-040-CV) was added to each well (100 μL/well) and was incubated for 18-24 hours at 4° C. The plates were then washed with 1× Phosphate Buffer Saline—Tween (“PBST”, Calbiochem, Catalog No. 524653) buffer using a plate washer. The plates were treated with bovine serum albumin (“BSA”, Sigma, Catalog No. A7906) to block non-specific binding sites, by adding a 2% BSA solution in 1×PBST buffer to each well (100 μL/well) and incubating the plates for 1 hour at room temperature. The plates were then washed with 1×PBST buffer using a plate washer.
# 2. PLK1-Catalyzed Phosphorylation Reaction
# An aqueous buffer solution A having the following composition was prepared:
# 20 mM HEPES (Cellgro/Mediatech, Catalog No. 25-060Ci), pH 7.2;
# 5 mM MgCl2 (Sigma, Catalog No. M2393);
# 2 mM MnCl2.4H2O (EM Biosciences, Catalog No. MX0185-2);
# 1 mM Dithiothreitol (“DTT”, Fluka, Catalog No. B4184).
# Next, the substrate solution B was prepared by adding 2.6 μL of 10 mM ATP (Sigma, Catalog No. A7699) and 6.4 μL of the 1 mM PLK1 substrate, CHK2-derived peptide Biotin-SSLETVSTQELYSIP (custom synthesized at Anaspec) SEQ ID: No. 1, to 4691 μL of the buffer solution A. The concentration of the ATP in solution B is 5.44 μM (1.36×); the concentration of the PLK1 substrate in solution B is 1.36 μM (1.36×).
# Compound solutions C of varying concentrations for each compound were prepared by dissolving each compound in dimethylsulfoxide (DMSO, Sigma, Catalog No. D2650) to varying concentrations, followed by adding 2 μL of each solution to 38 μL of the buffer solution A, thereby forming 10× compound solutions in 5% DMSO.
# A PLK1 solution D was prepared by adding 8.4 μL of 100 μg/mL PLK1 (Cell Signalling, Catalog No. 7728) to 1392 μL of the buffer solution A, thereby forming 0.6 μg/mL (6×) PLK1 solution.
# The aqueous 1.36× substrate solution B was added to each well (44 μL/well) resulting in binding of the substrate to the plate via biotin/neutravidin interaction. Then 10× compound solutions C for each tested compound at each tested concentration were added to each well (6 μL/well). Next, 6×PLK1 solution D was added to each well (10 μL/well).
# The final concentrations of tested compounds in each well were 10 μM, 3.3 μM, 1.1 μM, 0.36 μM, 0.12 μM, 0.04 μM, 0.014 μM, and 0.005 μM.
# The obtained reaction mixtures were incubated in the wells for 45 minutes at room temperature, allowing PLK1-catalyzed phosphorylation of the substrate to proceed. The plates were then washed with 1×PBST solution using a plate washer, such that the bound phosphorylated or unphosphorylated substrate remains attached to the wells upon washing.
# The washed plates were developed by treating the plates with a primary antibody that is specific for the phosphorylated substrate, followed by treatment with a secondary antibody that is specific for the primary antibody, and that is capable of catalyzing a reaction that results in a chemiluminescent readout. The chemiluminescent readout was used to quantify the substrate phosphorylation, and, consequently, to determine IC50 values for PLK1 inhibition, and was measured using a luminometer (Perkin Elmer/Wallac plate reader). The plate development protocol is described below.
# A mixed antibody solution E was prepared by adding 1 μL of the primary antibody, rabbit p-CHK2(T68) (Rockland, Catalog No. 401280), and 1 μL of the secondary antibody, HRP-goat anti-rabbit IgG (Jackson Immunoresearch Catalog No. 111-035-003) to 10000 μL of 0.1% BSA in 1×PBST buffer. […]
# [2] = target: T1, PLK1; test: Cellular PLK1 assay in K562 cells overexpressing CDC25C; assay type: cell-based; design: endogenous in cells; host or cells: K562 (human chronic myelogenous leukemia) overexpressing CDC25C, nocodazole-arrested; conditions: nocodazole arrested, cdc25c p-Ser198 readout
# Description: as §1
# 1. Culturing of K562 Cells
# Human chronic myelogenous leukemia K562 cells (American Tissue Culture Collection) overexpressing CDC25C, were grown in Growth Medium having the following composition: Iscove Dulbecco's Modified Eagle's Medium (“Iscove DMEM”, Mediatech/Cellgro, Cat. #10-013-CV), 10% Fetal Bovine Serum (“FBS”, SAFC Biosciences, Cat. #12106-500M), and 1% penicillin/streptomycin (“pen-strep”, Mediatech/Cellgro, Cat. #30-002-CI). The cells were plated in 96 well round bottom tissue culture plates (Fisher, Costar* Cell Culture plates, Cat. #07-200-95) at 100,000 cells per 50 μL of Growth Medium per well. Nocodazole (Sigma, Cat. # M1404) was added to the growth media to arrest the cells in the G2 or M phase, at 333 nM concentration. The cells were incubated with nocodazole for 18 hours at 37° C. prior to addition of tested compounds.
# 2. Treatment of Cells with the Tested Compounds
# Solutions of tested compounds in DMSO at different concentrations were prepared using serial dilutions. Each compound was tested at 8 concentration points, 10 μM, 3.3 μM, 1.11 μM, 0.37 μM, 0.12 μM, 0.04 μM, 0.014 μM, 0.005 μM, duplicate replicates.
# Two controls were performed: “DMSO alone” control in which nocodazole and DMSO were present but no compounds were added, and “nocodazole alone” control, in which only nocodazole was present, but neither DMSO nor compounds were added.
# The solutions of compounds were prepared by diluting 10 mM compound 1:1 in DMSO (5 μL 10 mM compound and 5 μL DMSO), followed by 1:3 serial dilutions of compound in DMSO performed by diluting 3 μL of higher concentration compound solution serially into 6 μL DMSO to give 3-fold dilutions. Next, 3 μL of each compound solution at each concentration was transferred to 750 μL of Growth Medium. In “DMSO alone” control 3 μL of DMSO alone was added to 750 μL of Growth Medium.
# After the diluted compounds were mixed well in the Growth Medium, 50 μL of each compound solution in DMSO/Growth Medium was transferred to each well of the 96-plate containing cells in 50 μL of Growth Medium/Nocodazole.
# The cells and compounds were incubated for 120 minutes at 37° C., in an atmosphere containing 5% CO2.
# 3. Fixation and Permeabilization of the Cells
# After the cells were incubated with compounds, the cells were spun down at 1,000 rpm for 5 minutes at 4° C. and supernatants were removed by flicking the plates. Cells were then washed with 200 μl of ice cold PBS, spun down again and supernatants removed. Cells were then fixed and permeabilized by addition of 100 μL/well of Fixation and Permeabilization Solution (1× buffer provided in BD Biosciences Cytofix/Cytoperm™ Fixation/Permeabilization kit, Cat. #554714) and incubation for 20 minutes at room temperature. The fixative was then removed by centrifugation (5 minutes at 2,000 rpm), and plates were flicked to remove the fixative and washed twice, each time with 200 μL/well BD Perm/Wash buffer (10× concentrate provided in BD Biosciences Cytofix/Cytoperm™ Fixation/Permeabilization kit, Cat. #554714, 1× buffer prepared by dilution in distilled H2O).
# Cells were spun down at 1,000 rpm for 5 minutes at 4° C. Supernatants were removed by flicking the plates. A solution of a primary antibody specific for cdc25cp-Ser198 was prepared by diluting Rabbit cdc25c (Ser198) antibody (Cell Signaling, #9529L) 1:50 in a Fluorescence Activated Cell Sorting (“FACS”) Buffer (2% FBS in PBS). The cell pellets were resuspended in 50 μL of the primary antibody solution. 50 μL of FACS buffer was added to unstained controls. Staining was allowed to proceed overnight at room temperature.
# The plates were then washed by addition of 200 μL of FACS Buffer to each well, were centrifuged and the supernatant was removed. […]
# [3] = ELISA, CHK2-derived peptide substrate, read-out: PLK1 IC50 (μM) biochemical assay
# [4] = read-out: IC50 in biochemical in vitro PLK1 ELISA assay (less than 10 μM)
# [5] = read-out: IC50 in biochemical ELISA assay (less than 0.01 μM)
# T1 sequence (P53350 whole entry): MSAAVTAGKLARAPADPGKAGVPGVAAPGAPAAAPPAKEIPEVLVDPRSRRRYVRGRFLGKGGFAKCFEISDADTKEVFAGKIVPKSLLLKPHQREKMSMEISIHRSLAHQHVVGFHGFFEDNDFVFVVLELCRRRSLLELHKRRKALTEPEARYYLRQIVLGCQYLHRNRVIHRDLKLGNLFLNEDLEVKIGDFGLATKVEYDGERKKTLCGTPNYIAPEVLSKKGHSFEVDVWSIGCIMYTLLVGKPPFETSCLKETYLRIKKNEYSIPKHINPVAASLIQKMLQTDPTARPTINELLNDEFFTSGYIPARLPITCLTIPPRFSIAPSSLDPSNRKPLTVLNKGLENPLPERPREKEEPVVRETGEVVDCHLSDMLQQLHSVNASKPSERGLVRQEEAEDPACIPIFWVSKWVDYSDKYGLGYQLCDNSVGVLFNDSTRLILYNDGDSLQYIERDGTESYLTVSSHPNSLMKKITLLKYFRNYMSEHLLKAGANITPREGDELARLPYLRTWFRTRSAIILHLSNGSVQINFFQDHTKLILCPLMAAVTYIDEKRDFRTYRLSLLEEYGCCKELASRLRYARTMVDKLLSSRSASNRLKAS
"IC50 [1, 3] [µM]","IC50 [1, 4] [µM]",IC50 [2] [µM],"IC50 [1, 5] [µM]",Structure (SMILES)
0.5 to 5,< 10,≥ 10,,"Cc1cc(Nc2ncc(C)c(Nc3ccc4c(n3)N(CC3CCC3)C(=O)CO4)n2)ccc1N1CCN(C)CC1 [compound 115, 4-(cyclobutylmethyl)-6-(5-methyl-2-(3-methyl-4-(4-methylpiperazin-1-yl)phenylamino)pyrimidin-4-ylamino)-2H-pyrido[3,2-b][1,4]oxazin-3(4H)-one]"
< 0.5,< 10,< 0.5,< 0.01,"CC(C)Oc1cc(Nc2ncc(F)c(Nc3ccc4c(n3)NCCO4)n2)cc(N2CCN(C)CC2)c1 [compound 26, N4-(3,4-dihydro-2H-pyrido[3,2-b][1,4]oxazin-6-yl)-5-fluoro-N2-(3-isopropoxy-5-(4-methylpiperazin-1-yl)phenyl)pyrimidine-2,4-diamine]"
< 0.5,< 10,< 0.5,< 0.01,"CCC(CC)N1C(=O)COc2ccc(Nc3nc(Nc4cccc(N5CCN(C)CC5)c4)ncc3F)nc21 [compound 134, 6-(5-fluoro-2-(3-(4-methylpiperazin-1-yl)phenylamino)pyrimidin-4-ylamino)-4-(pentan-3-yl)-2H-pyrido[3,2-b][1,4]oxazin-3(4H)-one]"
≥ 10,,5 to 10,,"Cc1cc(Nc2ncc(C)c(Nc3ccc4c(c3)N(Cc3ccccn3)C(=O)C(F)(F)O4)n2)ccc1N1CC2CC1CN2C (centres unmarked) [compound 139, 2,2-difluoro-6-(5-methyl-2-(3-methyl-4-(5-methyl-2,5-diaza-bicyclo[2.2.1]heptan-2-yl)phenyl-amino)pyrimidin-4-ylamino)-4-(pyridin-2-ylmethyl)-2H-benzo[b][1,4]oxazin-3(4H)-one]"
< 0.5,< 10,< 0.5,< 0.01,"CN1CC2CC1CN2c1cccc(Nc2ncc(F)c(Nc3ccc4c(n3)NCCO4)n2)c1 (centres unmarked) [compound 42, N4-(3,4-dihydro-2H-pyrido[3,2-b][1,4]oxazin-6-yl)-5-fluoro-N2-(3-(5-methyl-2,5-diazabicyclo[2.2.1]heptan-2-yl)phenyl)pyrimidine-2,4-diamine]"
5 to 10,< 10,≥ 10,,"CCN1C(=O)COc2ccc(Nc3nc(Nc4ccc(N5CCN(C)CC5)c(C)c4)ncc3C)cc21 [compound 191, 4-ethyl-6-(5-methyl-2-(3-methyl-4-(4-methylpiperazin-1-yl)phenylamino)pyrimidin-4-ylamino)-2H-benzo[b][1,4]oxazin-3(4H)-one]"
< 0.5,< 10,< 0.5,,"CN1CC2CC1CN2c1cccc(Nc2ncc(F)c(Nc3ccc4c(n3)NC(=O)CO4)n2)c1 (centres unmarked) [compound 41, 6-(5-fluoro-2-(3-(5-methyl-2,5-diaza-bicyclo[2.2.1]heptan-2-yl)phenylamino)pyrimidin-4-ylamino)-2H-pyrido[3,2-b][1,4]oxazin-3(4H)-one]"
≥ 10,,0.5 to 5,,"CN1C(=O)COc2ccc(Nc3nc(Nc4ccc(N5CCN(S(C)(=O)=O)CC5)cc4)ncc3Cl)cc21 [compound 197, 6-(5-chloro-2-(4-(4-(methylsulfonyl)piperazin-1-yl)phenyl-amino)pyrimidin-4-ylamino)-4-methyl-2H-benzo[b][1,4]oxazin-3(4H)-one]"
< 0.5,< 10,< 0.5,< 0.01,"CN1CCN(c2cccc(Nc3ncc(C(F)(F)F)c(Nc4ccc5c(n4)NCCO5)n3)c2)CC1 [compound 55, N4-(3,4-dihydro-2H-pyrido[3,2-b][1,4]oxazin-6-yl)-N2-(3-(4-methyl-piperazin-1-yl)phenyl)-5-(trifluoro-methyl)pyrimidine-2,4-diamine]"
< 0.5,< 10,≥ 10,,"CN1CCN(c2cc(Nc3ncc(F)c(Nc4ccc5c(n4)NC(=O)CO5)n3)cc(C(F)(F)F)c2)CC1 [compound 29, 6-(5-fluoro-2-(3-(4-methylpiperazin-1-yl)-5-(trifluoromethyl)phenyl-amino)pyrimidin-4-ylamino)-2H-pyrido[3,2-b][1,4]oxazin-3(4H)-one]"
